Biological target: human TMEM16A (TMEM16Aabc variant) (Homo sapiens, UniProt Q5XXA6, DEL476-501, form not given)
Assay: Automated whole-cell patch clamp (Qpatch) TMEM16A potentiator assay in FRT cells stably expressing human TMEM16A
Assay type: cell-based
Settings: for % Potentiation @ 3.33 μM Avg: 3.33 μM solution of test compound, percentage increase of baseline TMEM16A current; for EC50: calculated EC50, Qpatch TMEM16A current at +70 mV
Summary of the method: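 Potentiation was read as the rise in peak +70 mV current over baseline (%), from cumulative 5-min additions of compound. Recordings used whole-cell automated patch of FRT cells stably carrying human TMEM16Aabc, with pipette Ca2+ buffered to give ~20% maximal current. EC50 and efficacy came from concentration-response fits.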

Chain of human TMEM16A (TMEM16Aabc variant) (Q5XXA6 with tags, fused parts or gaps DEL476-501): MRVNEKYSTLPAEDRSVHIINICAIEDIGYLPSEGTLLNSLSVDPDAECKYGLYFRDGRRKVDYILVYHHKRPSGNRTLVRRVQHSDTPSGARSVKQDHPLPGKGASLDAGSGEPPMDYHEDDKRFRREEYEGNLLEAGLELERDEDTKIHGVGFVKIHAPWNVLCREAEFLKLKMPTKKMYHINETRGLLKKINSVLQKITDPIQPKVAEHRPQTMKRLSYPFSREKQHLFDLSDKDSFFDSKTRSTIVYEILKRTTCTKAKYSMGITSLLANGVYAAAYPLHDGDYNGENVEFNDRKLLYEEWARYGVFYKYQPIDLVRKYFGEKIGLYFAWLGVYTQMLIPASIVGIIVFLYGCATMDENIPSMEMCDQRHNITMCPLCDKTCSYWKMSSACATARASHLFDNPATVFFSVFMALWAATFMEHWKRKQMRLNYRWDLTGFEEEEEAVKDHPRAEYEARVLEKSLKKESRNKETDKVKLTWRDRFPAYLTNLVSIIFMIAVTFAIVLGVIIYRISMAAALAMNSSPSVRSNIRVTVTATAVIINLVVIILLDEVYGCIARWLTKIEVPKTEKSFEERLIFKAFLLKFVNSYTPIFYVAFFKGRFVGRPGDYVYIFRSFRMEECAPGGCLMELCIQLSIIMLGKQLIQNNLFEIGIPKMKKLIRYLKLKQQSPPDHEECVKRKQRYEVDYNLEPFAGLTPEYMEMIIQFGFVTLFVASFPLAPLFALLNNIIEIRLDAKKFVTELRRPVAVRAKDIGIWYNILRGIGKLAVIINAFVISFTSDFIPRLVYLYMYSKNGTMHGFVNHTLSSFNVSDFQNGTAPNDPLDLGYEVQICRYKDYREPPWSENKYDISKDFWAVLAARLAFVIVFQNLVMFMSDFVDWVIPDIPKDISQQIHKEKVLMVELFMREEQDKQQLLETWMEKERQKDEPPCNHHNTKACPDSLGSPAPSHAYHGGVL

% Potentiation @ 3.33 μM Avg	Structure (SMILES)	EC50
114%	CC(C)(C)NC(=O)c1cc(NC(=O)Cc2cc(Cl)ccc2O)c(Cl)cn1 [Example 55, N-tert-Butyl-5-chloro-4-[[2-(5-chloro-2-hydroxy-phenyl)acetyl]amino]pyridine-2-carboxamide]	–
76%	COc1ccc(COc2ccc(Cl)cc2CC(=O)Nc2ccnc(C(=O)NC(C)(C)C)c2)cc1 [Example 56, N-tert-Butyl-4-[[2-[5-chloro-2-[(4-methoxyphenyl)methoxy]phenyl]acetyl]amino]pyridine-2-carboxamide]	–
217%	CC(C)(C)NC(=O)c1cc(NC(=O)Cc2ccccc2C2CC2)ccn1 [Example 58, N-tert-Butyl-4-[[2-(2-cyclopropylphenyl)acetyl]amino]pyridine-2-carboxamide]	–
175%	CC(C)(C)NC(=O)c1cc(NC(=O)Cc2cc(Cl)cc(Br)c2O)ccn1 [Example 59, 4-[[2-(3-Bromo-5-chloro-2-hydroxy-phenyl)acetyl]amino]-N-tert-butyl-pyridine-2-carboxamide]	–
60%	CC(C#N)(CO)NC(=O)c1cc(NC(=O)Cc2ccccc2F)ccn1 (centres unmarked) [Example 60.1, N-(1-Cyano-2-hydroxy-1-methyl-ethyl)-4-[[2-(2-fluorophenyl)acetyl]amino]pyridine-2-carboxamide]	–
85%	CC(C)c1cc(Cl)cc(CC(=O)Nc2ccnc(C(=O)NC(C)(C)C)c2)c1O [Example 61, N-tert-Butyl-4-[[2-(5-chloro-2-hydroxy-3-isopropyl-phenyl)acetyl]amino]pyridine-2-carboxamide]	–
99%	COC(C)c1cc(Cl)cc(CC(=O)Nc2ccnc(C(=O)NC(C)(C)C)c2)c1O (centres unmarked) [Example 62, N-tert-Butyl-4-[[2-[5-chloro-2-hydroxy-3-(1-methoxyethyl)phenyl]acetyl]amino] pyridine-2-carboxamide]	–
37%	O=C(Cc1ccc2ncccc2c1)Nc1ccnc(C(=O)NC2CCOCC2)c1 [Example 63, 4-[[2-(6-Quinolyl)acetyl]amino]-N-tetrahydropyran-4-yl-pyridine-2-carboxamide]	–
55%	CC(C)(C)NC(=O)c1cc(NC(=O)NCc2ccccc2)ccn1 [Example 64, 4-(Benzylcarbamoylamino)-N-tert-butyl-pyridine-2-carboxamide]	–
78%	CC(C)(C)NC(=O)c1cc(NC(=O)NCC2CCCCC2)ccn1 [Example 64.1, N-tert-Butyl-4-(cyclohexylmethylcarbamoylamino)pyridine-2-carboxamide]	–
61%	CC(C)(C)NC(=O)c1cc(NC(=O)NCCc2ccccc2)ccn1 [Example 64.2, N-tert-Butyl-4-(2-phenylethylcarbamoylamino)pyridine-2-carboxamide]	–
70%	C[C@@H](NC(=O)Nc1ccnc(C(=O)NC(C)(C)C)c1)c1ccccc1 [Example 64.3, N-tert-Butyl-4-[[(1R)-1-phenylethyl]carbamoylamino]pyridine-2-carboxamide]	–
2%	C[C@H](NC(=O)Nc1ccnc(C(=O)NC(C)(C)C)c1)c1ccccc1 [Example 64.4, N-tert-Butyl-4-[[(1S)-1-phenylethyl]carbamoylamino]pyridine-2-carboxamide]	–
0%	CC(C)(C)NC(=O)c1cc(NC(=O)Nc2c[nH]c3ccccc23)ccn1 [Example 64.6, N-tert-butyl-4-(1H-indol-3-ylcarbamoylamino)pyridine-2-carboxamide]	–
83%	CC(C)(C)NC(=O)c1cc(NC(=O)NCc2cccc(Cl)c2)ccn1 [Example 64.7, N-tert-Butyl-4-[(3-chlorophenyl)methylcarbamoylamino]pyridine-2-carboxamide]	–
97%	CC(C)(C)NC(=O)c1cc(NC(=O)NCc2ccc(Cl)cc2)ccn1 [Example 64.8, N-tert-butyl-4-[(4-chlorophenyl)methylcarbamoylamino]pyridine-2-carboxamide]	–
55%	CC(C)(C)NC(=O)c1cc(NC(=O)Nc2ccccc2O)ccn1 [Example 65, N-tert-Butyl-4-[(2-hydroxyphenyl)carbamoylamino]pyridine-2-carboxamide]	–
33%	CC(C)(C)NC(=O)c1cc(NC(=O)NCc2cccc(O)c2)ccn1 [Example 65.3, N-tert-Butyl-4-[(3-hydroxyphenyl)methylcarbamoylamino]pyridine-2-carboxamide]	–
10%	CC(C)(C)NC(=O)c1cc(NC(=O)NCc2ccc(O)cc2)ccn1 [Example 65.4, N-tert-Butyl-4-[(4-hydroxyphenyl)methylcarbamoylamino]pyridine-2-carboxamide]	–
130%	CC(O)c1ccc(O)c(CC(=O)Nc2ccnc(C(=O)NC(C)(C)C)c2)c1 (centres unmarked) [Example 66, N-tert-Butyl-4-[[2-[2-hydroxy-5-(1-hydroxyethyl)phenyl]acetyl]amino]pyridine-2-carboxamide]	–
39%	CC(C)(C)NC(=O)c1cc(NC(=O)Cc2cccc(CC#N)c2)ccn1 [Example 68, N-tert-Butyl-4-[[2-[3-(cyanomethyl)phenyl]acetyl]amino]pyridine-2-carboxamide]	–
47%	COCc1cccc(CC(=O)Nc2ccnc(C(=O)NC(C)(C)C)c2)c1 [Example 69, N-tert-Butyl-4-[[2-[3-(methoxymethyl)phenyl]acetyl]amino]pyridine-2-carboxamide]	–
138%	CC(C)(C)NC(=O)c1cc(NC(=O)Cc2cc(CN3CCOCC3)ccc2O)ccn1 [Example 70, N-tert-Butyl-4-[[2-[2-hydroxy-5-(morpholinomethyl)phenyl]acetyl]amino]pyridine-2-carboxamide]	–
162%	N#CC1(NC(=O)c2cccc(NC(=O)Cc3cc(Cl)ccc3O)c2)CCOC1 (centres unmarked) [Example 71, 3-[[2-(5-Chloro-2-hydroxy-phenyl)acetyl]amino]-N-(3-cyanotetrahydrofuran-3-yl)benzamide]	–
53%	O=C(Cc1cc(F)ccc1O)Nc1ccnc(C(=O)NC2(CO)CCOC2)c1 (centres unmarked) [Example 72, 4-[[2-(5-Fluoro-2-hydroxy-phenyl)acetyl]amino]-N-[3-(hydroxymethyl)tetrahydrofuran-3-yl]pyridine-2-carboxamide]	–
49%	O=C(Cc1cc(Cl)ccc1O)Nc1cccc(C(=O)NC2(CO)CCOC2)c1 (centres unmarked) [Example 74.1, 3-[[2-(5-Chloro-2-hydroxy-phenyl)acetyl]amino]-N-[3-(hydroxymethyl)tetra hydrofuran-3-yl]benzamide]	–
34%	CC(C)(C)NC(=O)c1cc(NC(=O)Cc2cc(CCCO)ccc2O)ccn1 [Example 75, N-tert-Butyl-4-[[2-[2-hydroxy-5-(3-hydroxypropyl)phenyl]acetyl]amino]pyridine-2-carboxamide]	–

Structure (SMILES)	% Potentiation @ 3.33 μM Avg	EC50
O=C(Cc1ccccc1F)Nc1ccnc(C(=O)NC23CCC(F)(C2)C3)c1 [Example 60, N-(4-Fluoro-1-bicyclo[2.1.1]hexanyl)-4-[[2-(2-fluorophenyl)acetyl]amino]pyridine-2-carboxamide]	126%	350 nM
C#CC(C)(C)NC(=O)c1cc(NC(=O)Cc2ccccc2F)ccn1 [Example 60.2, N-(1,1-Dimethylprop-2-ynyl)-4-[[2-(2-fluorophenyl)acetyl]amino]pyridine-2-carboxamide]	169%	200 nM
CC(C)(C)NC(=O)c1cc(NC(=O)NCc2ccccc2Cl)ccn1 [Example 64.5, N-tert-Butyl-4-[(2-chlorophenyl)methylcarbamoylamino]pyridine-2-carboxamide]	143%	450 nM
COc1ccccc1CNC(=O)Nc1ccnc(C(=O)NC(C)(C)C)c1 [Example 65.1, N-tert-Butyl-4-[(2-methoxyphenyl)methylcarbamoylamino]pyridine-2-carboxamide]	75%	470 nM
CC(C)(C)NC(=O)c1cc(NC(=O)NCc2ccccc2O)ccn1 [Example 65.2, N-tert-Butyl-4-[(2-hydroxyphenyl)methylcarbamoylamino]pyridine-2-carboxamide]	73%	480 nM
CC(NCC(F)(F)F)c1ccc(O)c(CC(=O)Nc2ccnc(C(=O)NC(C)(C)C)c2)c1 (centres unmarked) [Example 67, N-tert-Butyl-4-[[2-[2-hydroxy-5-[1-(2,2,2-trifluoroethylamino)ethyl]phenyl]acetyl]amino]pyridine-2-carboxamide]	158%	1100 nM
CC1(NC(=O)c2cccc(NC(=O)Cc3cc(Cl)ccc3O)c2)CCCCC1 [Example 71.1, 3-[[2-(5-Chloro-2-hydroxy-phenyl)acetyl]amino]-N-(1-methylcyclohexyl)benzamide]	256%	250 nM
COCC(C)(CO)NC(=O)c1cc(NC(=O)Cc2cc(Cl)ccc2O)ccn1 (centres unmarked) [Example 73, 4-[[2-(5-Chloro-2-hydroxy-phenyl)acetyl]amino]-N-[1-(hydroxymethyl)-2-methoxy-1-methyl-ethyl]pyridine-2-carboxamide]	196%	310 nM
CC#CC(C)(C)NC(=O)c1cc(NC(=O)Cc2cc(Cl)ccc2O)ccn1 [Example 73.1, 4-[[2-(5-Chloro-2-hydroxy-phenyl)acetyl]amino]-N-(1,1-dimethylbut-2-ynyl) pyridine-2-carboxamide]	389%	280 nM
C#CC(C)(C)NC(=O)c1cccc(NC(=O)Cc2cc(Cl)ccc2O)c1 [Example 74, 3-[[2-(5-Chloro-2-hydroxy-phenyl)acetyl]amino]-N-(1,1-dimethylprop-2-ynyl)benzamide]	337%	180 nM

Reference: patent US20200361871A1 (Enterprise Therapeutics Ltd., priority 2018, published 2020)
